Laboratory results: ChEMBL document CHEMBL3763148, “Synthesis, structure elucidation, DNA-PK and PI3K and anti-cancer activity of 8- and 6-aryl-substituted-1-3-benzoxazines” (Eur J Med Chem, 2016)

Experiments:
KM12 = test: Cytotoxicity against human KM12 cells assessed as cell growth inhibition at 10 uM after 48 hrs by SRB assay relative to control; assay type: functional; settings: KM12, 48 h, read-out: GI
[1] = Cytotoxicity against human LOXIMVI cells assessed as cell growth inhibition at 10 uM after 48 hrs by SRB assay relative to control; assay type: functional; settings: LOX IMVI, read-out: GI
786-0 = test: Cytotoxicity against human 786-0 cells assessed as cell growth inhibition at 10 uM after 48 hrs by SRB assay relative to control; assay type: functional; settings: 786-0, 48 h, read-out: GI
NCI-H322M = test: Cytotoxicity against human NCI-H322M cells assessed as cell growth inhibition at 10 uM after 48 hrs by SRB assay relative to control; assay type: functional; settings: read-out: GI
[2] = Cytotoxicity against human COLO205 cells assessed as cell growth inhibition at 10 uM after 48 hrs by SRB assay relative to control; assay type: functional; settings: COLO 205, 48 h, read-out: GI
EKVX = test: Cytotoxicity against human EKVX cells assessed as cell growth inhibition at 10 uM after 48 hrs by SRB assay relative to control; assay type: functional; settings: read-out: GI
MDA-MB-468 = test: Cytotoxicity against human MDA-MB-468 cells assessed as cell growth inhibition at 10 uM after 48 hrs by SRB assay relative to control; assay type: functional; settings: MDA-MB-468, 48 h, read-out: GI
[3] = Cytotoxicity against human UACC257 cells assessed as cell growth inhibition at 10 uM after 48 hrs by SRB assay relative to control; assay type: functional; settings: UACC-257, 48 h, read-out: GI
[4] = target: T1, Phosphatidylinositol 4,5-bisphosphate 3-kinase catalytic subunit delta isoform (Homo sapiens, UniProt O00329); test: Inhibition of PI3Kdelta (unknown origin) incubated for 60 mins by kinase-glo luminescence assay
T1 sequence (O00329 whole entry): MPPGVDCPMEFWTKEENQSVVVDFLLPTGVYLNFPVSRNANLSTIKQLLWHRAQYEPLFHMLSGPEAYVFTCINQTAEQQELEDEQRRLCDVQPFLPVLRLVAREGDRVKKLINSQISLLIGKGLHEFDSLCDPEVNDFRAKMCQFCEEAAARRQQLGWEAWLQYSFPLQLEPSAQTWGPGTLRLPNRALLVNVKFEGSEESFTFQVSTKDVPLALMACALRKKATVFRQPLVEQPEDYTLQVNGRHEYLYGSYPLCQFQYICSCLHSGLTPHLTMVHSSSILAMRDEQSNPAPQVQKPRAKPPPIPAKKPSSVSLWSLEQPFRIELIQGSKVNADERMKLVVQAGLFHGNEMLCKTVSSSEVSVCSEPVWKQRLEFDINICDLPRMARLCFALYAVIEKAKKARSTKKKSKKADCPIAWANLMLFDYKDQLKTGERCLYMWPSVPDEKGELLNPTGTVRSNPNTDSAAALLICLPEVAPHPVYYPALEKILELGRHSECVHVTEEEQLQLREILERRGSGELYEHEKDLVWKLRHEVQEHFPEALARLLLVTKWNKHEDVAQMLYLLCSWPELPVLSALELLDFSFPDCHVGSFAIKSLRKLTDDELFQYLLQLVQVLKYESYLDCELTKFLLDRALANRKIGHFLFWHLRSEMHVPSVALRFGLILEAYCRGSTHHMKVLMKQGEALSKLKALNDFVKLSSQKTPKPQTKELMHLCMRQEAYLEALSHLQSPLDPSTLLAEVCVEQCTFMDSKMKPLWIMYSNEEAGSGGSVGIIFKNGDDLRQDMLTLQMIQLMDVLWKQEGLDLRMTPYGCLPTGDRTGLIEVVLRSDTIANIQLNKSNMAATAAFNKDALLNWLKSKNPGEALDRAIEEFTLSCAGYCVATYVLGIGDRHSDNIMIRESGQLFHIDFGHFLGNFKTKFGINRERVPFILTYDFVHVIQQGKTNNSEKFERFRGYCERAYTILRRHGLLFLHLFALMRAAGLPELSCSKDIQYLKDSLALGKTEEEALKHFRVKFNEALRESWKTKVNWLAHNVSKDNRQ

[5] = Cytotoxicity against human SKOV3 cells assessed as cell growth inhibition at 10 uM after 48 hrs by SRB assay relative to control; assay type: functional; settings: SK-OV-3, 48 h, read-out: GI
SK-MEL-5 = test: Cytotoxicity against human SK-MEL-5 cells assessed as cell growth inhibition at 10 uM after 48 hrs by SRB assay relative to control; assay type: functional; settings: SK-MEL-5, 48 h, read-out: GI
[6] = Cytotoxicity against human SF539 cells assessed as cell growth inhibition at 10 uM after 48 hrs by SRB assay relative to control; assay type: functional; settings: SF-539, 48 h, read-out: GI
NCI-H460 = test: Cytotoxicity against human NCI-H460 cells assessed as cell growth inhibition at 10 uM after 48 hrs by SRB assay relative to control; assay type: functional; settings: NCI-H460, 48 h, read-out: GI
[7] = target: Phosphatidylinositol 4,5-bisphosphate 3-kinase catalytic subunit gamma isoform (Homo sapiens) (UniProt P48736); test: Inhibition of PI3Kgamma (unknown origin) at 10 uM incubated for 60 mins by kinase-glo luminescence assay
SK-MEL-2 = test: Cytotoxicity against human SK-MEL-2 cells assessed as cell growth inhibition at 10 uM after 48 hrs by SRB assay relative to control; assay type: functional; settings: SK-MEL-2, 48 h, read-out: GI
[8] = Cytotoxicity against human UO31 cells assessed as cell growth inhibition at 10 uM after 48 hrs by SRB assay relative to control; assay type: functional; settings: UO-31, 48 h, read-out: GI
Malme-3M = test: Cytotoxicity against human MALME-3M cells assessed as cell growth inhibition at 10 uM after 48 hrs by SRB assay relative to control; assay type: functional; settings: read-out: GI
[9] = Cytotoxicity against human HL-60(TB) cells assessed as cell growth inhibition at 10 uM after 48 hrs by SRB assay relative to control; assay type: functional; settings: HL-60, 48 h, read-out: GI
[10] = Cytotoxicity against human UACC62 cells assessed as cell growth inhibition at 10 uM after 48 hrs by SRB assay relative to control; assay type: functional; settings: UACC-62, 48 h, read-out: GI
[11] = Cytotoxicity against human SNB19 cells assessed as cell growth inhibition at 10 uM after 48 hrs by SRB assay relative to control; assay type: functional; settings: SNB-19, 48 h, read-out: GI
U-251 = test: Cytotoxicity against human U251 cells assessed as cell growth inhibition at 10 uM after 48 hrs by SRB assay relative to control; assay type: functional; settings: U-251, 48 h, read-out: GI
NCI-H226 = test: Cytotoxicity against human NCI-H226 cells assessed as cell growth inhibition at 10 uM after 48 hrs by SRB assay relative to control; assay type: functional; settings: NCI-H226, 48 h, read-out: GI
CCRF-CEM = test: Cytotoxicity against human CCRF-CEM cells assessed as cell growth inhibition at 10 uM after 48 hrs by SRB assay relative to control; assay type: functional; settings: read-out: GI
[12] = Cytotoxicity against human BT549 cells assessed as cell growth inhibition at 10 uM after 48 hrs by SRB assay relative to control; assay type: functional; settings: BT-549, 48 h, read-out: GI

Sequence of Phosphatidylinositol 4,5-bisphosphate 3-kinase catalytic subunit gamma isoform (Homo sapiens) (P48736 whole entry, looked up, canonical isoform): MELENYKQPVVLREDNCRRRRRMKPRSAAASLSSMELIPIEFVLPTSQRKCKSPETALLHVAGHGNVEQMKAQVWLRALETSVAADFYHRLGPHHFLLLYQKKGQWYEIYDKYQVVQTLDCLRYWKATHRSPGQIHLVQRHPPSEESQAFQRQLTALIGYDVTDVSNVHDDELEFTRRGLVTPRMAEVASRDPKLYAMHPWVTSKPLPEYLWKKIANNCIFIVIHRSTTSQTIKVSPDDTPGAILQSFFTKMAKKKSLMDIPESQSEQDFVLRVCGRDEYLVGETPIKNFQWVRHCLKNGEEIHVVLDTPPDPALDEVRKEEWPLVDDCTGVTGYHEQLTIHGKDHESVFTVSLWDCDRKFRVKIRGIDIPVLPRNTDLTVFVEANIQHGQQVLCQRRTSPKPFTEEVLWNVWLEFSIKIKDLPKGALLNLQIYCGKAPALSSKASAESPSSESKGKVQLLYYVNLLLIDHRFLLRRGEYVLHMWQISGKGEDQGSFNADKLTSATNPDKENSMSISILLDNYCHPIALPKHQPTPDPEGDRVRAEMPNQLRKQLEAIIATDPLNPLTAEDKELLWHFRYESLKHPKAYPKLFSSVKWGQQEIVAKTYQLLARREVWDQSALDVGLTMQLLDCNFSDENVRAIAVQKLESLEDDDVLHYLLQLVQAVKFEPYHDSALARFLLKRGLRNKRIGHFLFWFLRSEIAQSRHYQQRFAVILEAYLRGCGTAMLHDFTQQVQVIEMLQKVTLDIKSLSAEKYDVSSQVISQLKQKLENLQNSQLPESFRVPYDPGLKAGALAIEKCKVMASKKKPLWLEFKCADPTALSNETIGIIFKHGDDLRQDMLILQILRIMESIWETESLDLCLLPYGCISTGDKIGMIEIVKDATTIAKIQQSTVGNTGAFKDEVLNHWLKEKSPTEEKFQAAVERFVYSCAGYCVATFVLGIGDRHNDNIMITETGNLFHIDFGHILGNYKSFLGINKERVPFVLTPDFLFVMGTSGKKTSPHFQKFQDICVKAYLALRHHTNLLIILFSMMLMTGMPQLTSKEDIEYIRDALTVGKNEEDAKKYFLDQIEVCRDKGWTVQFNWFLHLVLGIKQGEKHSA

Work on `NC(=O)c1ccc(-c2cccc3c(=O)nc(N4CCOCC4)oc23)cc1` yielded an inhibition of growth at 10 µM (KM12) of 2.45%, an inhibition of growth at 10 µM [1] of 8.86% and an inhibition of growth at 10 µM (786-0) of -0.31%. For the same compound, the inhibition of growth at 10 µM (NCI-H322M) was 7.01%, the inhibition of growth at 10 µM [2] was -3.93% and the inhibition of growth at 10 µM (EKVX) was 2.66%. For the same compound, the inhibition of growth at 10 µM (MDA-MB-468) was -5.19%, the inhibition of growth at 10 µM [3] was -3.78% and the IC50 [4] was over 10 µM. The inhibition of growth at 10 µM [5] was -3.41%, the inhibition of growth at 10 µM (SK-MEL-5) was 2.24% and the inhibition of growth at 10 µM [6] was -1.74%. The inhibition of growth at 10 µM (NCI-H460) was -5.06%, the inhibition [7] was 10% and the inhibition of growth at 10 µM (SK-MEL-2) was -2.17%. For the same compound, the inhibition of growth at 10 µM [8] was 10.8%, the inhibition of growth at 10 µM (Malme-3M) was 14.6% and the inhibition of growth at 10 µM [9] was 2.5%. It also gave an inhibition of growth at 10 µM [10] of 7.72%, an inhibition of growth at 10 µM [11] of 0.88% and an inhibition of growth at 10 µM (U-251) of 2.31%. It also gave an inhibition of growth at 10 µM (NCI-H226) of 17.4%, an inhibition of growth at 10 µM (CCRF-CEM) of 1.37% and an inhibition of growth at 10 µM [12] of 1.94%.

`O=c1nc(N2CCOCC2)oc2c(-c3cccs3)cccc12` gave an inhibition of growth at 10 µM (KM12) of 1.99%, an inhibition of growth at 10 µM [1] of 14.4% and an inhibition of growth at 10 µM (786-0) of 7.7%. The inhibition of growth at 10 µM (NCI-H322M) was 9.05%, the inhibition of growth at 10 µM [2] was 1.02% and the inhibition of growth at 10 µM (EKVX) was 14.1%. For the same compound, the inhibition of growth at 10 µM (MDA-MB-468) was 20.3%, the inhibition of growth at 10 µM [3] was 3.74% and the IC50 [4] was 4.5 µM. The inhibition of growth at 10 µM [5] was -0.56%, the inhibition of growth at 10 µM (SK-MEL-5) was 13.3% and the inhibition of growth at 10 µM [6] was 1.52%. It also gave an inhibition of growth at 10 µM (NCI-H460) of -5.8%, an inhibition [7] of 16% and an inhibition of growth at 10 µM (SK-MEL-2) of -7.08%. It also gave an inhibition of growth at 10 µM [8] of 20.2%, an inhibition of growth at 10 µM (Malme-3M) of 16.1% and an inhibition of growth at 10 µM [9] of 3.68%. For the same compound, the inhibition of growth at 10 µM [10] was 20.9%, the inhibition of growth at 10 µM [11] was 5.86% and the inhibition of growth at 10 µM (U-251) was 4.68%. It also gave an inhibition of growth at 10 µM (NCI-H226) of 22%, an inhibition of growth at 10 µM (CCRF-CEM) of 2.36% and an inhibition of growth at 10 µM [12] of 14.5%.
